This is an account of results in publication PMC6066518, “Homology Modeling Informs Ligand Discovery for the Glutamine Transporter ASCT2” (Frontiers in Chemistry, 2018).

This experiment concerns the target T1, ASCT2 (Rattus norvegicus, UniProt D3ZJ25).
T1 construct: gene Slc1a5
T1 sequence (D3ZJ25 1-555): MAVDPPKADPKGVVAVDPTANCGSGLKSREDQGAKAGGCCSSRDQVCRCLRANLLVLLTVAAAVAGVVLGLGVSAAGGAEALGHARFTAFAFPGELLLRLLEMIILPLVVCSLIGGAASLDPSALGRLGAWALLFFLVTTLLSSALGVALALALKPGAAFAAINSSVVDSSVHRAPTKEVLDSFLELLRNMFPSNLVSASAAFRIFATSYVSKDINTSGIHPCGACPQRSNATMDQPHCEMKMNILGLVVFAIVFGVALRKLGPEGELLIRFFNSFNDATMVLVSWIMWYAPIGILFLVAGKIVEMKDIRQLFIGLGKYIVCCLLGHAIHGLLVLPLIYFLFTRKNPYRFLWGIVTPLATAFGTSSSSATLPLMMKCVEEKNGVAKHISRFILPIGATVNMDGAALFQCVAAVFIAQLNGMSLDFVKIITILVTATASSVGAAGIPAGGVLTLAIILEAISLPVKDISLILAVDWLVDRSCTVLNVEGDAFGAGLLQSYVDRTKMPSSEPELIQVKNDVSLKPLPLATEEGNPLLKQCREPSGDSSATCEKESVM
The experiment can be described thus: whole-cell current recording, inhibition of anion leak current in HEK293 cells expressing rat ASCT2. It counts as cell-based.

In the case of `Cc1ccccc1C1(CNC(=O)NC(C(N)=O)c2ccccc2)CC1` (stereo not shown) [compound 10], the IC50 turned out to be 67 ± 17 µM.
